Like-named read-outs stand apart in the source and are kept apart here.
Experiments:
T29Kt1 cells [1] = experiment: cells; conditions: Homo sapiens, T29Kt1, read-out: IC50 in T29k cells, Table 1
DLD1 = experiment: Cell viability, DLD1 colon cancer cells; type: cell-based, human; conditions: Homo sapiens
Heb46 = experiment: Cell viability, Heb46 kidney cells; type: cell-based
A549CK8 = experiment: Cell viability, A549CK8 lung cancer cells; type: cell-based, human; conditions: Homo sapiens, read-out: IC50 (−LogM) (converted)
HKE3 = experiment: Cell viability, HKE3 colon cancer cells; type: cell-based, human; conditions: Homo sapiens
H322 cells = experiment: Cell viability, H322 lung cancer cells; type: cell-based, human; conditions: Homo sapiens
CT116P53 = experiment: Cell viability, CT116P53 colon cancer cells; type: cell-based, human; conditions: Homo sapiens, read-out: IC50 (−LogM) (converted)
Capanc-1 = experiment: Cell viability, Capanc-1 pancreatic cancer cells; type: cell-based, human; conditions: Homo sapiens, Pancreatic cancer cell
Heb44 = experiment: Cell viability, Heb44 kidney cells; type: cell-based
Hct116 = experiment: Cell viability, Hct116 colon cancer cells; type: cell-based, human; conditions: Homo sapiens
H1299 cells = experiment: Cell viability, H1299 lung cancer cells; type: cell-based, human; conditions: Homo sapiens, NCI-H1299, read-out: IC50 (−LogM), h1299, Lung (converted)
A549 cells = experiment: Cell viability, A549 lung cancer cells; type: cell-based, human; conditions: Homo sapiens, A549, read-out: IC50 (−LogM), A549, Lung (converted)
H460 cells [2] = experiment: cells; conditions: Homo sapiens
H226B cells = experiment: Cell viability, H226B lung cancer cells; type: cell-based, human; conditions: Homo sapiens
miapac = experiment: Cell viability, miapac pancreatic cancer cells; type: cell-based, human; conditions: Homo sapiens, Pancreatic cancer cell, read-out: IC50 (−LogM) (converted)
AsPC-1 = experiment: Cell viability, AsPC-1 pancreatic cancer cells; type: cell-based, human; conditions: Homo sapiens
H460 cells [3] = conditions: Table 1; value is the negative log10 of mol/L
T29 cells = conditions: Table 1; value is the negative log10 of mol/L
T29Kt1 cells [4] = conditions: Table 1; value is the negative log10 of mol/L
[5] = NCI-H460, read-out: IC50 (−LogM), H460, Lung (converted)
[6] = NCI-H460, read-out: IC50 in H460 cells, Table 1

CC(=O)c1cn(Cc2cccc(Cl)c2)c2ccccc12 [Oncrasin K058]
IC50 (T29Kt1 cells [1]): 31.6 µM

O=Cc1cn(Cc2cccc(C(F)(F)F)c2)c2ccccc12 [Oncrasin K62, 1-[3-(trifluoromethyl)benzyl]-1H-indole-3-carbaldehyde]
IC50 (DLD1; DLD-1, read-out: IC50 (−LogM) (converted)): < 31.6 µM | IC50 (Heb46): 10 µM | IC50 (A549CK8): 7.94 µM | IC50 (HKE3; read-out: IC50 (−LogM), HKE3, Colon, first HKE3 line (converted)): 3.16 µM | IC50 (HKE3; read-out: IC50 (−LogM), HKE3, Colon, second HKE3 line (converted)): 5.01 µM | IC50 (H322 cells; NCI-H322, read-out: IC50 (−LogM) (converted)): 10 µM | IC50 (CT116P53): < 31.6 µM | IC50 (Capanc-1; read-out: IC50 (−LogM), capanc1, Pancrease (converted)): 31.6 µM | IC50 (Heb44): 0.1 µM | IC50 (Hct116; HCT-116, read-out: IC50 (−LogM), Hct116, Colon (converted)): 12.6 µM | IC50 (H1299 cells): 10 µM | IC50 (A549 cells): 10 µM | IC50 (T29Kt1 cells [1]): 5.62 µM | IC50 (H460 cells [2]; [5]): 0.0158 µM | IC50 (H460 cells [2]; [6]): 0.0138 µM | IC50 (H226B cells; read-out: IC50 (−LogM), H226B, Lung, first H226B line (converted)): 3.16 µM | IC50 (H226B cells; read-out: IC50 (−LogM), H226B, Lung, second H226B line (converted)): 10 µM | IC50 (miapac): < 31.6 µM | IC50 (AsPC-1; ASPC1, read-out: IC50 (−LogM), ASPC1, Pancrease (converted)): 15.8 µM

OCc1cn(Cc2cccc(C(F)(F)F)c2)c2ccccc12 [Oncrasin K63, {1-[3-(trifluoromethyl)benzyl]-1H-indol-3-yl}methanol]
IC50 (DLD1; DLD-1, DLD1, Colon, read-out: IC50 (−LogM) (converted)): < 31.6 µM | IC50 (Heb46): 10 µM | IC50 (A549CK8; A549CK8, Lung): 10 µM | IC50 (HKE3; HKE3, Colon, first HKE3 line, read-out: IC50 (−LogM) (converted)): 1 µM | IC50 (HKE3; HKE3, Colon, second HKE3 line, read-out: IC50 (−LogM) (converted)): 1.58 µM | IC50 (H322 cells; NCI-H322, H322, Lung, read-out: IC50 (−LogM) (converted)): 31.6 µM | IC50 (CT116P53; CT116P53, Colon): < 31.6 µM | IC50 (Capanc-1; capanc1, Pancrease, read-out: IC50 (−LogM) (converted)): 31.6 µM | IC50 (Heb44): 0.251 µM | IC50 (Hct116; HCT-116, Hct116, Colon, read-out: IC50 (−LogM) (converted)): 7.94 µM | IC50 (T29Kt1 cells [1]): 0.562 µM | IC50 (H460 cells [2]; [5]): 0.0398 µM | IC50 (H460 cells [2]; [6]): 0.0398 µM | IC50 (H226B cells; H226B, Lung, first H226B line, read-out: IC50 (−LogM) (converted)): 0.316 µM | IC50 (H226B cells; H226B, Lung, second H226B line, read-out: IC50 (−LogM) (converted)): 1.58 µM | IC50 (miapac; miapac, Pancrease): < 31.6 µM | IC50 (AsPC-1; ASPC1, Pancrease, read-out: IC50 (−LogM) (converted)): 10 µM

O=Cc1cn(Cc2ccc(C(F)(F)F)cc2)c2ccccc12 [Oncrasin K64, 1H-Indole-3-carboxaldehyde, 1-[[4-(trifluoromethyl)phenyl]methyl]-(9CI)]
IC50 in H460 cells (H460 cells [3]): 5.8

OCN1CC(Cc2ccc(C(F)(F)F)cc2)c2ccccc21 (stereo not drawn) [Oncrasin K65]
IC50 (T29Kt1 cells [1]): 1.26 µM | IC50 (H460 cells [2]; [6]): 1.26 µM

Cc1ccc(Cn2cc(CO)c3ccccc32)cc1 [Oncrasin K67, 1H-Indole-3-methanol, 1-[(4-methylphenyl)methyl]-(9CI)]
IC50 in T29 cells (T29 cells): 4.8 | IC50 in H460 cells (H460 cells [3]): 7 | IC50 in T29k cells (T29Kt1 cells [4]): 6.1

O=Cc1cn(Cc2ccc([N+](=O)[O-])cc2)c2ccccc12 [Oncrasin K70, 1-(4-nitrobenzyl)-1H-indole-3-carbaldehyde]
IC50 (T29Kt1 cells [1]): 10 µM | IC50 (H460 cells [2]; [6]): 0.501 µM

OCc1cn(Cc2cccc(Cl)c2)c2ccccc12 [Oncrasin K72, 1H-Indole-3-methanol, 1-[(3-chlorophenyl)methyl]-(9CI)]
IC50 in H460 cells (H460 cells [3]): 5.9 | IC50 in T29k cells (T29Kt1 cells [4]): 5.75

OCc1cn(Cc2ccc(Cl)cc2Cl)c2ccccc12 [Oncrasin K74, 1H-Indole-3-methanol, 1-[(2,4-dichlorophenyl)methyl]-]
IC50 (T29Kt1 cells [1]): 1.58 µM | IC50 (H460 cells [2]; [6]): 0.0794 µM

O=C(CCCCCCC(=O)N/N=C/c1cn(Cc2ccc(Cl)cc2)c2ccccc12)CCCCC1SCC2NC(=O)NC21 (stereo not drawn) [Oncrasin K130]
IC50 (T29Kt1 cells [1]): 2.51 µM | IC50 (H460 cells [2]; [6]): 0.398 µM

— patent US8883841B2, “Oncogenic ras-specific cytotoxic compound and methods of use thereof” (The Board of Regents of the University of Texas System, priority 2005, dated 2014)
